Assay results published in patent US20240366511A1, “ORAL SOLID DOSE FORMULATIONS” (GLAXOSMITHKLINE INTELLECTUAL PROPERTY DEVELOPMENT LIMITED, priority 2021, published 2024).
Counter-ions that a name gives are not always drawn. Like-named read-outs stand apart in the source and are kept apart here.

Columns and labels:
[1] = Solubility of gepotidacin mesylate dihydrate (Form 1) in water and simulated fluids; assay type: physicochemical; settings: 20 °C, thermodynamic from solid, as free base, 20-25° C., read-out: Solubility (mg/mL of free base at 20-25° C.)
Procedure: The solubility of gepotidacin mesylate dihydrate (Form 1) was determined in simulated gastric fluid pH 1.6 (SGF), fasted state simulated intestinal fluid pH 6.5 (FaSSIF) and fed state simulated intestinal fluid pH 6.5 (FeSSIF) at ambient room temperature (20-25 C).

[2] = Stability of crystal form under ambient conditions; assay type: physicochemical
Procedure: In another preparation, a spatula (<20 mg) of gepotidacin mesylate dihydrate (Form 1) was suspended in IPA (<1.5 ml). The suspension was heated with a heat gun to dissolve most of the solids, and then left to slowly cool to room temperature. The resultant crystals were filtered and analysed by DSC, TGA, and XRPD.

Row | SMILES | solubility ([1]; Water) | solubility ([1]; fasted state simulated intestinal fluid (FaSSIF), FaSSIF (pH 6.5)) | solubility ([1]; fed state simulated intestinal fluid (FeSSIF), FeSSIF (pH 6.5)) | solubility ([1]; simulated gastric fluid (SGF), simulated gastric fluid, SGF (pH 1.6)) | stability of the form [2]
1 | O=c1ccc2ncc(=O)n3c2n1C[C@H]3CN1CCC(NCc2cc3c(cn2)OCCC3)CC1 [gepotidacin mesylate dihydrate (Form 1)] | > 180 mg/mL | 113 mg/mL | 99 mg/mL | 175 mg/mL | –
2 | CS(=O)(=O)O.O=c1cnc2ccc(=O)n3c2n1C[C@H]3CN1CCC(NCc2cc3c(cn2)OCCC3)CC1 [gepotidacin mesylate anhydrate] | – | – | – | – | unstable under ambient conditions
